2 compounds from patent US20120245180A1, “COMBINATION” (GlaxoSmithKline LLC, priority 2009, published 2012) can be followed below.

One experiment relates to SNU449. In words: Cell growth inhibition assay, hepatocellular carcinoma cell line (Cell Titer Glo). It counts as cell-based, human. The following applies: 3 days. Here is the method:
(§1) Human tumor cell lines from hepatocellular carcinoma (HCC), C3A, Hep3B, HepG2, PLC/PRF/5, SNU182, SNU387, SNU398, SNU423, SNU449 and SNU475 were purchased from the ATCC. Human breast tumor cell lines, HCC2218, HCC1419, BT-474, SK-BR-3, UACC893, JIMT-1, MDA-MB-361, HCC202, MDA-MB-175-VII, HCC1569, HCC1937, HCC38, MDA-MB-157, HCC1954, HCC1500, BT483, KPL-1, SUM225 and ZR-75-1 from ATCC, SUM52 and SUM190 from Asterand, PLC (Detroit Mich.), were cultured in RPMI 1640 medium containing 10% FBS; SKBR3-W13 and BT-474-J4 cultured in RPMI 1640 medium containing 10% FBS and 1 μM lapatinib; KPL4 line was kindly provided by Dr Junichi Kurebayashi (Kawasaki Medical School, Okayama, Japan) and cultured in DMEM containing 5% FBS. JIMT-1 from European Collection of Cell Cultures (UK), is a line derived from a patient clinically resistant to trastuzumab (Herceptin®). SK-BR-3-W13 is a single cell clone isolated by a cloning cylinder after a single treatment of SK-BR-3 cells with 0.5 μM lapatinib. BT-474-J4 is a single cell clone derived from a pool of BT-474 cells that were selected to grow in lapatinib to a concentration of 3 μM.
Cells were seeded in a 96-well tissue culture plate (NUNC 136102) of RPMI medium containing 10% FBS at 500-2,000 cells per well. […] ATP levels were determined by adding Cell Titer Glo® (Promega) according to the manufacturer's protocol. Briefly, Cell Titer Glo® was added to each plate, incubated for 20 minutes then luminescent signal was read on the SpectraMax L plate reader with a 0.5 sec integration time. […]
Inhibition of cell growth was estimated after treatment with compound or combination of compounds for three days and comparing the signal to cells treated with vehicle (DMSO). Cell growth was calculated relative to vehicle (DMSO) treated control wells. […]
(§2) Combination effects on potency were evaluated using the Combination Index (CI) and Excess Over Highest Single Agent (EHOSA) methods.

The next experiment has as its system SNU182. The experiment is described as above. It counts as cell-based. The following applies: Homo sapiens, SNU-182, 72 h, 3 days. The protocol:
as §1
(§3) Cells were seeded in a 96-well tissue culture plate (NUNC 136102) of RPMI medium containing 10% FBS at 500-2,000 cells per well. Approximately 24 hours after plating, cells were exposed to ten, two-fold or three-fold serial dilutions of either Compound A or B or the combination of the two agents at a 2:1 molar ratio (Compounds A and B respectively). In some cases, cells were grown in RPMI media containing 10% FBS and in the presence or absence of 2 ng/mL hepatocyte growth factor (HGF). Cells were incubated in the presence of compounds for 3 days. ATP levels were determined by adding Cell Titer Glo® (Promega) according to the manufacturer's protocol. Briefly, Cell Titer Glo® was added to each plate, incubated for 20 minutes then luminescent signal was read on the SpectraMax L plate reader with a 0.5 sec integration time. All assays were run at least in duplicate.
(§4) Inhibition of cell growth was estimated after treatment with compound or combination of compounds for three days and comparing the signal to cells treated with vehicle (DMSO). Cell growth was calculated relative to vehicle (DMSO) treated control wells. Concentration of compound that inhibits 50% of control cell growth (IC50) was back-interpolated when y=50% of DMSO treated control wells using nonlinear regression with the equation: […]
(§5) where A is the minimum response (ymin), B is the maximum response (Ymax), C is the inflection point of the curve (EC50) and D is the Hill coefficient.
as §2

For a further experiment, the system named is SNU475. The experiment is described as above. The experiment is classed as cell-based. As to conditions: Homo sapiens, SNU-475, 72 h, 3 days. The protocol: as §1, §3, §4, §5, §2
Another experiment has as its system HepG2. The description is as above. It counts as cell-based. As to conditions: Homo sapiens, HepG2, 72 h, 3 days. Here is the method: as §1, §3, §4, §5, §2
For another experiment, the system named is SNU387. Described as above. The experiment is classed as cell-based. As to conditions: Homo sapiens, SNU-387, 72 h, 3 days. The protocol: as §1, §3, §4, §5, §2
A further experiment deals with SNU398. The experiment is described as above. It counts as cell-based. As to conditions: Homo sapiens, SNU-398, 72 h, 3 days. Here is the method: as §1, §3, §4, §5, §2
For another experiment, the system named is Hep3B. Described as above. It counts as cell-based. The following applies: Homo sapiens, 72 h, 3 days. Here is the method: as §1, §3, §4, §5, §2
Another experiment concerns SNU423. Described as above. The experiment is classed as cell-based. The following applies: Homo sapiens, SNU-423, 72 h, 3 days. Here is the method: as §1, §3, §4, §5, §2
Experiment [1] has as its system hepatocellular carcinoma (HCC) cell lines. In words: Cell growth inhibition, panel of 10 HCC cell lines. It counts as cell-based, human. As to conditions: for IC50: Homo sapiens. The protocol: as §1, §3, §4, §5, §2
Another experiment has as its system SK-BR-3-W13. In words: Cell growth inhibition assay, breast tumor cell line (Cell Titer Glo). It counts as cell-based. As to conditions: Homo sapiens, 72 h; SK-BR-3-W13 (HER2+), 3 days; read-out: Single agent IC50, Compound A. The protocol: as §1, §3, §4, §5, §2
DNA Copy number data on the HER2 gene was collected for all breast cancer cell lines using the Affymetrix 500K chip (Affymetrix Inc, Sunnyvale, Calif.). Briefly DNA was extracted from each line, digested with the restriction enzyme Nsp or Sty, ligated to an adaptor and amplified by PCR. After PCR, DNA was fragmented, labeled, denatured, and hybridized to the Affymetrix 500K chip. Upon completion of hybridization, each assay was washed and stained. Image data were acquired. Similarly collected data from a panel 10 diploid non-tumorigenic lymphoblastic cell lines were used to calculate DNA copy number. All ‘SNP Chip’ images ('CEL files'), were extracted, read and normalized using the dChip software package (Lin et al. 2004. Bioinformatics. 20:1233-40). SNP-wise ‘copy-number ratios’ (log2 scale) were calculated for all cancer cell lines using the lymphoblastic reference panel and analyzed by circular binary segmentation to reduce noise (Olshen et al. 2004. Biostatistics. 5:557-72). Cell lines with log2 ratios of HER2>0.65 were considered HER2+.

Read-outs that look alike come from different tables or passages of the source.

On to `CC(=O)Nc1cccc(-n2c(=O)n(C3CC3)c(=O)c3c(Nc4ccc(I)cc4F)n(C)c(=O)c(C)c32)c1` [Compound A, N-{3-[3-cyclopropyl-5-[(2-fluoro-4-iodophenyl)amino]-6,8-dimethyl-2,4,7-trioxo-3,4,6,7-tetrahydropyrido[4,3-d]pyrimidin-1(2H)-yl]phenyl}acetamide], for which the IC50 in the experiment on SNU449 (Homo sapiens, SNU-449, 72 h, SNU449, HGF −, read-out: Single agent IC50, Compound A) is over 5000 nM; with SNU449 (SNU449, HGF + (2 ng/ml), read-out: Single agent IC50, Compound A), over 5000 nM; with SNU182 (SNU182, HGF + (2 ng/ml), read-out: Single agent IC50, Compound A), 1280 ± 1220 nM; in the experiment with SNU182 (SNU182, HGF −, read-out: Single agent IC50, Compound A), 1760 ± 224 nM; in the experiment with SNU475 (SNU475, HGF + (2 ng/ml), read-out: Single agent IC50, Compound A) it was over 5000 nM; in the experiment with SNU475 (SNU475, HGF −, read-out: Single agent IC50, Compound A), over 5000 nM. The half-maximal inhibitory concentration (IC50) was 3 ± 1 nM in the experiment with HepG2 (HepG2, HGF + (2 ng/ml), read-out: Single agent IC50, Compound A); 1 nM in the experiment on HepG2 (HepG2, HGF −, read-out: Single agent IC50, Compound A); 94 ± 21 nM in the experiment on SNU387 (SNU387, HGF + (2 ng/ml), read-out: Single agent IC50, Compound A); 74 ± 46 nM in the experiment on SNU387 (SNU387, HGF −, read-out: Single agent IC50, Compound A); over 5000 nM in the experiment with SNU398 (SNU398, HGF + (2 ng/ml), read-out: Single agent IC50, Compound A); over 5000 nM in the experiment with SNU398 (SNU398, HGF −, read-out: Single agent IC50, Compound A). The IC50 is 37 ± 8 nM with Hep3B (HGF + (2 ng/ml), read-out: Single agent IC50, Compound A); 26 ± 8 nM in the experiment with Hep3B (HGF −, read-out: Single agent IC50, Compound A); 577 ± 569 nM in the experiment with SNU423 (SNU423, HGF + (2 ng/ml), read-out: Single agent IC50, Compound A); 218 ± 130 nM in the experiment on SNU423 (SNU423, HGF −, read-out: Single agent IC50, Compound A); 1200 to 2800 nM in experiment [1] (SNU 182 and PLC/PRF/5 epithelial-like cell lines); under 37 nM in experiment [1] (epithelial-like HCC cell lines HepG2, C3A and Hep3B). Moreover, the IC50 in experiment [1] (mesenchymal-like HCC cell lines SNU387 and SNU423) is 74 to 577 nM; with SK-BR-3-W13 it was over 1000 nM. Further, in experiment [1] (mesenchymal-like cell lines SNU398, SNU449 and SNU475), the “sensitivity to cell growth inhibition” value is recorded as “not sensitive”.

`COc1ncc(-c2ccc3nccc(-c4ccnnc4)c3c2)cc1NS(=O)(=O)c1ccc(F)cc1F` [Compound B, 2,4-difluoro-N-{2-(methyloxy)-5-[4-(4-pyridazinyl)-6-quinolinyl]-3-pyridinyl}benzenesulfonamide]: the IC50 in the experiment on SNU449 (Homo sapiens, SNU-449, 72 h, SNU449, HGF −, read-out: Single agent IC50, Compound B) worked out at 24 ± 5 nM; with SNU182 (SNU182, HGF + (2 ng/ml), read-out: Single agent IC50, Compound B), 17 ± 4 nM; with SNU182 (SNU182, HGF −, read-out: Single agent IC50, Compound B), 17 ± 1 nM; in the experiment with SNU475 (SNU475, HGF + (2 ng/ml), read-out: Single agent IC50, Compound B), 39 ± 17 nM; in the experiment on SNU475 (SNU475, HGF −, read-out: Single agent IC50, Compound B), 50 ± 19 nM; with HepG2 (HepG2, HGF + (2 ng/ml), read-out: Single agent IC50, Compound B) it was 9 ± 5 nM. The IC50 in the experiment on HepG2 (HepG2, HGF −, read-out: Single agent IC50, Compound B) was 9 ± 8 nM; in the experiment with SNU387 (SNU387, HGF + (2 ng/ml), read-out: Single agent IC50, Compound B), 71 ± 10 nM; in the experiment with SNU387 (SNU387, HGF −, read-out: Single agent IC50, Compound B), 103 ± 10 nM; in the experiment on SNU398 (SNU398, HGF + (2 ng/ml), read-out: Single agent IC50, Compound B), 83 ± 2 nM; with SNU398 (SNU398, HGF −, read-out: Single agent IC50, Compound B) it was 98 ± 21 nM; with Hep3B (HGF + (2 ng/ml), read-out: Single agent IC50, Compound B), 57 ± 20 nM. The IC50 is 28 ± 2 nM in the experiment on Hep3B (HGF −, read-out: Single agent IC50, Compound B); 21 ± 7 nM with SNU423 (SNU423, HGF + (2 ng/ml), read-out: Single agent IC50, Compound B); 23 ± 16 nM with SNU423 (SNU423, HGF −, read-out: Single agent IC50, Compound B); under 103 nM in [1] (all 10 HCC lines).
